# Tested on: interleukin (IL)-6
# Experiment: Human immune cell line THP-1 in vitro assay: IL-6 in supernatant of LPS-treated differentiated THP1-XBlue cells (ELISA)
# Assay type: cell-based
# Settings: differentiated THP1-XBlue cells co-treated with E. coli LPS and composition, 24 hours; percentage to LPS-treated cells = 100%; three repeats
# Description: Human Immune Cell Line THP-1 In Vitro Assay The following procedure was used to determine the anti-inflammation efficacy: THP1-XBlue™ (Cat No. thpx-sp, InvivoGen, San Diego, CA) cells were cultured as suspension in RPMI 1640 medium supplemented with 10% fetal bovine serum (FBS), penicillin (10 U/mL)-streptomycin (10 μg/mL) (Cat No. 15140122, Invitrogen, Carlsbad, CA). Cells were differentiated in 24-well plates at the density of 5×10^5 cells/well with 100 nM phorbol-12-myristate-13-acetate for 72 hours. Cells were then co-treated with pure E. coli lipopolysaccharides (LPS, Cat No. L2630, Sigma-Aldrich) and various compositions in Table 1. […] Expression of IL-6 was calculated as the percentage to LPS-treated cells which was designated as 100%. P value was analysed by Student's t-test comparing combination groups and individual compound groups (expression of IL-6, three repeats for each group).
structure (smiles),measurement,value
"CCCCCCC(O)CCCCCCCCCCC(=O)O (stereo not shown) [B, 12-hydroxystearic acid]",Expression of IL-6 (%),84.4%

# Reference: patent publication US12673019B2, “Skin care composition” (Conopco, Inc., priority 2021, dated 2026)
